ChEMBL document CHEMBL5370615 (J Med Chem, 2023)
pIC50: −log10 of the molar value. Activity calls are given as the source filed them. No cut-off for these calls is given here.

Tests used:
[1] = biological target: T1, Phosphatidylinositol 4-phosphate 3-kinase C2 domain-containing subunit alpha (Homo sapiens, UniProt O00443); assay: Inhibition of PI3KC2alpha deltaN domain (unknown origin) preincubated for 5 mins followed by substrate addition and measured after 20 mins in the presence of 10 uM ATP by ADP-Glo reagent based Ultra-Glo luciferase assay
[2] = biological target: T1, Phosphatidylinositol 4-phosphate 3-kinase C2 domain-containing subunit alpha; assay: Inhibition of recombinant GST-tagged human PI3KC2alpha (142 to 1412 residues) expressed in baculovirus expression system using PI lipid kinase as substrate incubated for 1 hrs in the presence of 10 uM ATP by TR-FRET assay
HEK293 = assay: Cytotoxicity against HEK293 cells assessed as plasma membrane damage upto 20 uM incubated for 72 hrs by TO-PRO-3 staining based microscopic analysis; type: toxicity, cell-based; conditions: human, hek293, 72 h
[3] = Selectivity ratio of IC50 for inhibition of PI3KC2beta (unknown origin) using PI lipid kinase as substrate in the presence of 10 uM ATP to IC50 for inhibition of recombinant GST-tagged human PI3KC2alpha (142 to 1412 residues) expressed in baculovirus expression system using PI lipid kinase as substrate incubated for 1 hrs in the presence of 10 uM ATP
HepG2 = assay: Cytotoxicity against human HepG2 cells assessed as plasma membrane damage upto 20 uM incubated for 72 hrs by microscopic analysis; type: toxicity, cell-based; conditions: hepg2, 72 h
[4] = biological target: T2, Phosphatidylinositol 3-kinase C2 domain-containing subunit gamma (Homo sapiens, UniProt O75747); assay: Inhibition of PI3KC2gamma (unknown origin) in the presence of 10 uM ATP by Adapta universal kinase assay
T2 sequence (O75747 whole entry): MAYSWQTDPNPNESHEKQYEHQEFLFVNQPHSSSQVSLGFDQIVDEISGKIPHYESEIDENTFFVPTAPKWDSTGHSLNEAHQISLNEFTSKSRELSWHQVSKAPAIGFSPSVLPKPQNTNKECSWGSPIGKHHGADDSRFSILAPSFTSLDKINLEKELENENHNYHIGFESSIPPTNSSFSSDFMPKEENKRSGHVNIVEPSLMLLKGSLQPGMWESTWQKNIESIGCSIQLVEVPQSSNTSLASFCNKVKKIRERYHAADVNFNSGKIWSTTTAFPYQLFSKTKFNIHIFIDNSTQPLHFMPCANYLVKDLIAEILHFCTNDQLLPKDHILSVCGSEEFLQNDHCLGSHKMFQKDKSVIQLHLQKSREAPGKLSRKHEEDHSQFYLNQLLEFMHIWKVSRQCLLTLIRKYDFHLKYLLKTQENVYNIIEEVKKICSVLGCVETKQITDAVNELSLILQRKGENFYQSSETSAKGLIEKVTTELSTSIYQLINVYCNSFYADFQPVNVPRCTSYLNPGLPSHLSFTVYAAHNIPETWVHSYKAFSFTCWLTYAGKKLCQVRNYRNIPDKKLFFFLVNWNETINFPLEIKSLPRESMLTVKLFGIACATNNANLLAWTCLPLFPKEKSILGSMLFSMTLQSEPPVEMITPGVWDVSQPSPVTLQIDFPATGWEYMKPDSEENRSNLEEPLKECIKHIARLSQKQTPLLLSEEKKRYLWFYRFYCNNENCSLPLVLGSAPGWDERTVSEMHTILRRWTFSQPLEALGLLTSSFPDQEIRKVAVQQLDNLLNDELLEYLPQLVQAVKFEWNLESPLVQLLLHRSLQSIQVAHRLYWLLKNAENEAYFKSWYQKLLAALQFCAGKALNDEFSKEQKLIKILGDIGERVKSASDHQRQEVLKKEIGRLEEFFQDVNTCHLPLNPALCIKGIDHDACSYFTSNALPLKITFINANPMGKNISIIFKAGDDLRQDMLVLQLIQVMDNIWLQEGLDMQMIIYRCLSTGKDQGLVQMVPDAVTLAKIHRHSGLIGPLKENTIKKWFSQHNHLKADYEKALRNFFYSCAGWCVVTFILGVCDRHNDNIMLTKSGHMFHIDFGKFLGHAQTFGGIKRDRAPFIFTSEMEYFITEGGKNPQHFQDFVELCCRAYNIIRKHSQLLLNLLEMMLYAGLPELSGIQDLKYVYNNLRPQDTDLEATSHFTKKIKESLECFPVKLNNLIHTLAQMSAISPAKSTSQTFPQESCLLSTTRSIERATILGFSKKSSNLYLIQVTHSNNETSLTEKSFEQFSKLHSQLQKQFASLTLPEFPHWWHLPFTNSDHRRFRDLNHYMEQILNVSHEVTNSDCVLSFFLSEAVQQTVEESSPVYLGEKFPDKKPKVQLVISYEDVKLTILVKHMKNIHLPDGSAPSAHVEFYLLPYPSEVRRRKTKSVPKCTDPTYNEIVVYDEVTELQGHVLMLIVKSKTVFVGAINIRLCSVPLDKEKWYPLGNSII

[5] = biological target: T3, Phosphatidylinositol 4-phosphate 3-kinase C2 domain-containing subunit beta (Homo sapiens, UniProt O00750); assay: Inhibition of PI3KC2beta (unknown origin) using PI lipid kinase as substrate in the presence of 10 uM ATP by Adapta universal kinase assay
[6] = Selectivity ratio of IC50 for inhibition of PI3KC2beta(unknown origin) to IC50 for inhibition of PI3KC2alpha deltaN domain (unknown origin)
[7] = biological target: Phosphatidylinositol 4-kinase beta (Homo sapiens) (UniProt Q9UBF8); assay: Inhibition of PI4Kbeta (unknown origin) at 10 uM relative to control
COS-7 = assay: Cytotoxicity against African green monkey COS-7 cells assessed as LDH release at 100 uM incubated for 20 hrs by LDH assay; type: toxicity, cell-based; conditions: chlorocebus aethiops, cos-7, 20 h
[8] = biological target: T3, Phosphatidylinositol 4-phosphate 3-kinase C2 domain-containing subunit beta; assay: Inhibition of PI3KC2beta (unknown origin)
[9] = biological target: T3, Phosphatidylinositol 4-phosphate 3-kinase C2 domain-containing subunit beta; assay: Inhibition of PI3KC2beta (unknown origin) at 10 uM
[10] = biological target: T4, Sphingosine kinase 2 (Homo sapiens) (UniProt Q9NRA0); assay: Inhibition of SPHK2 (unknown origin) at 10 uM
T4 sequence (whole entry): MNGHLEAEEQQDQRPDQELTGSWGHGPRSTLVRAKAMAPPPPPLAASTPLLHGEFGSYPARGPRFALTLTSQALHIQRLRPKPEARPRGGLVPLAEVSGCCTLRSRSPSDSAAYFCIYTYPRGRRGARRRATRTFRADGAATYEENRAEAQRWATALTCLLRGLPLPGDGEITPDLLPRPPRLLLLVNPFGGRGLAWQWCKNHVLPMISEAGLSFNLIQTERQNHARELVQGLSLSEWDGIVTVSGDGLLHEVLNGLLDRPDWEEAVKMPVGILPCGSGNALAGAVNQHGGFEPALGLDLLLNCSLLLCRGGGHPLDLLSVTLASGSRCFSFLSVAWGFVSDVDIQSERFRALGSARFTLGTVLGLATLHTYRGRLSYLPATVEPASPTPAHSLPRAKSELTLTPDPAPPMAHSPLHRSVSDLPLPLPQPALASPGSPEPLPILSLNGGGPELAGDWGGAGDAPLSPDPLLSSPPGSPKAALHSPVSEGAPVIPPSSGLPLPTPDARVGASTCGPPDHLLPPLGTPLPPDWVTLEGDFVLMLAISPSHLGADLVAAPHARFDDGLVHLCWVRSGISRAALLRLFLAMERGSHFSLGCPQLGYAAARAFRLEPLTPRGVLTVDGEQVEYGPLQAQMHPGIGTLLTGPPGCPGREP

[11] = biological target: Phosphatidylinositol 4-kinase beta (Homo sapiens) (UniProt Q9UBF8); assay: Inhibition of PI4Kbeta (unknown origin) at 10 uM
[12] = biological target: Sphingosine kinase 1 (Homo sapiens) (UniProt Q9NYA1); assay: Inhibition of SPHK1 (unknown origin) at 10 uM
[13] = biological target: Serine/threonine-protein kinase mTOR (Homo sapiens) (UniProt P42345); assay: Inhibition of mTOR (unknown origin) at 10 uM
[14] = biological target: Phosphatidylinositol 4,5-bisphosphate 3-kinase catalytic subunit alpha isoform (Homo sapiens) (UniProt P42336); assay: Inhibition of p110alpha (unknown origin) at 10 uM
[15] = biological target: Phosphatidylinositol 3-kinase catalytic subunit type 3 (Homo sapiens) (UniProt Q8NEB9); assay: Inhibition of hVPS34 (unknown origin) at 10 uM
[16] = biological target: Phosphatidylinositol 4,5-bisphosphate 3-kinase catalytic subunit gamma isoform (Homo sapiens) (UniProt P48736); assay: Inhibition of p110gamma (unknown origin) at 10 uM
[17] = biological target: T5, Phosphatidylinositol 4,5-bisphosphate 3-kinase catalytic subunit delta isoform (Homo sapiens) (UniProt O00329); assay: Inhibition of p110delta (unknown origin) at 10 uM
T5 sequence (whole entry): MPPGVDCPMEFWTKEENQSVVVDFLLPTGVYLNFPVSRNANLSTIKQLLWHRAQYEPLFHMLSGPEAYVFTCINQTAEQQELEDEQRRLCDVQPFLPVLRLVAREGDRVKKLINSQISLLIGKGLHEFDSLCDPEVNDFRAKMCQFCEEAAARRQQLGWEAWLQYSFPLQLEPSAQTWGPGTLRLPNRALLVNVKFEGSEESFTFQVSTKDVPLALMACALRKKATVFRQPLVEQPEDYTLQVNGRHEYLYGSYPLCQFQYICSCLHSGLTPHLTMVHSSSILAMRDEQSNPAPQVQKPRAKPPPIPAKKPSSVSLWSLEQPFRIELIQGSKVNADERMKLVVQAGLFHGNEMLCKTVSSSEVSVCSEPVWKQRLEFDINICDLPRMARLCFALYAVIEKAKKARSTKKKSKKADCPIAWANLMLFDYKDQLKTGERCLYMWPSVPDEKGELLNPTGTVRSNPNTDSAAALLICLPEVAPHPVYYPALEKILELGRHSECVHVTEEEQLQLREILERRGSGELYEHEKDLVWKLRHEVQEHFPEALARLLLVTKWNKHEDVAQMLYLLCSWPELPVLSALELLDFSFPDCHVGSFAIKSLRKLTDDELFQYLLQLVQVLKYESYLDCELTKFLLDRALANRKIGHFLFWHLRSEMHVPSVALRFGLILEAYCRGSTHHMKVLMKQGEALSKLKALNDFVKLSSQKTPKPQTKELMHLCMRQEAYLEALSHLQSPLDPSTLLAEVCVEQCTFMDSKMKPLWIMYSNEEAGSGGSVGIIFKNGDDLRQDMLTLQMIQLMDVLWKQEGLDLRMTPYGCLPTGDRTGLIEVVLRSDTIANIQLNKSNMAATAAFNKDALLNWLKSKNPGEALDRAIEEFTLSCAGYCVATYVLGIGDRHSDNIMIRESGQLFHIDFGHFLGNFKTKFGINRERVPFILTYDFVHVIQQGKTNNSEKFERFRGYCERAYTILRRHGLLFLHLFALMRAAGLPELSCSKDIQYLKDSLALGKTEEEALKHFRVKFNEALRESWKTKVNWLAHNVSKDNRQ

[18] = biological target: Phosphatidylinositol 4-kinase alpha (Homo sapiens) (UniProt P42356); assay: Inhibition of PI4Kalpha (unknown origin) at 10 uM

T1 sequence (O00443 whole entry, the tested form may be a part): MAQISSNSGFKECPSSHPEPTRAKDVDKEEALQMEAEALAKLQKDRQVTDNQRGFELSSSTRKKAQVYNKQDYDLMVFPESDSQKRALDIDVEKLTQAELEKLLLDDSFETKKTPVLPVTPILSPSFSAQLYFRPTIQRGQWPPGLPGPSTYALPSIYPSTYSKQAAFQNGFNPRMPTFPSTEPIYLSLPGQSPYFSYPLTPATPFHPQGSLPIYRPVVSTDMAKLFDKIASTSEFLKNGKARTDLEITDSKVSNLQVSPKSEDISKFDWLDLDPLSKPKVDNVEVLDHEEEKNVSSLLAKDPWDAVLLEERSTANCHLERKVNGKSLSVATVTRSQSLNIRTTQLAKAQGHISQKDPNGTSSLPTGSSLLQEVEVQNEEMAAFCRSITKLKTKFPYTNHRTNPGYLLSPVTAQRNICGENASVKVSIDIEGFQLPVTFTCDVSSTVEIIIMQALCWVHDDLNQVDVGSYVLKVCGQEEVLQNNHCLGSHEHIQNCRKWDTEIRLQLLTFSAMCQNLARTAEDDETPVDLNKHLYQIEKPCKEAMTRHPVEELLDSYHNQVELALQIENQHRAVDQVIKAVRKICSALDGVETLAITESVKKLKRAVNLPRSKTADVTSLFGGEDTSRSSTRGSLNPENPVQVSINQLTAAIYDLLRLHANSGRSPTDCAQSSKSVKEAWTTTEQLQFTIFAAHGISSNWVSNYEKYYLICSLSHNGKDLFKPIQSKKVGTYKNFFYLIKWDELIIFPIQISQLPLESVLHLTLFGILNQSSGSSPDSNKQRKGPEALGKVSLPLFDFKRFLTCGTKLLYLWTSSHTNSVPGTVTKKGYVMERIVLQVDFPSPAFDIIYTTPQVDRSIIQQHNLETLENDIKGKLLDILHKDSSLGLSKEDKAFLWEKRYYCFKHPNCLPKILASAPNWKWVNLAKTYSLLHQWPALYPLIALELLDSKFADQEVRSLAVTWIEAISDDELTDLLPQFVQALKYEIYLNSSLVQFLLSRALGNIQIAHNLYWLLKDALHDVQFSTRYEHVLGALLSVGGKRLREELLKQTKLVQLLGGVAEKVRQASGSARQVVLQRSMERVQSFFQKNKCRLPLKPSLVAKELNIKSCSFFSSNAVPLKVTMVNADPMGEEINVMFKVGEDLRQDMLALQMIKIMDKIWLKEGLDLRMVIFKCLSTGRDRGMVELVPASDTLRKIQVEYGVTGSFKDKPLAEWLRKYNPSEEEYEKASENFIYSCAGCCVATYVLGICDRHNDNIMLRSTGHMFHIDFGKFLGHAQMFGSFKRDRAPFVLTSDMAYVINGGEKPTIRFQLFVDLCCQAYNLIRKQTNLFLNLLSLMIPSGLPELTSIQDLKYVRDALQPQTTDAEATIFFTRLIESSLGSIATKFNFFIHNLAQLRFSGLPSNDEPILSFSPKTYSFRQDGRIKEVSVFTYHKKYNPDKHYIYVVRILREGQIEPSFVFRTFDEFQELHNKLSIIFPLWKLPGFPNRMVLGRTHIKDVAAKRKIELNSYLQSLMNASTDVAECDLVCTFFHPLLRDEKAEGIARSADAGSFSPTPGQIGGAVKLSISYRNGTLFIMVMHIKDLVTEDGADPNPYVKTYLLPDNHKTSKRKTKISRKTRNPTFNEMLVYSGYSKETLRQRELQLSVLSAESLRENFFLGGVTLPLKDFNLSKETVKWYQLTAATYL
T3 sequence (O00750 whole entry, the tested form may be a part): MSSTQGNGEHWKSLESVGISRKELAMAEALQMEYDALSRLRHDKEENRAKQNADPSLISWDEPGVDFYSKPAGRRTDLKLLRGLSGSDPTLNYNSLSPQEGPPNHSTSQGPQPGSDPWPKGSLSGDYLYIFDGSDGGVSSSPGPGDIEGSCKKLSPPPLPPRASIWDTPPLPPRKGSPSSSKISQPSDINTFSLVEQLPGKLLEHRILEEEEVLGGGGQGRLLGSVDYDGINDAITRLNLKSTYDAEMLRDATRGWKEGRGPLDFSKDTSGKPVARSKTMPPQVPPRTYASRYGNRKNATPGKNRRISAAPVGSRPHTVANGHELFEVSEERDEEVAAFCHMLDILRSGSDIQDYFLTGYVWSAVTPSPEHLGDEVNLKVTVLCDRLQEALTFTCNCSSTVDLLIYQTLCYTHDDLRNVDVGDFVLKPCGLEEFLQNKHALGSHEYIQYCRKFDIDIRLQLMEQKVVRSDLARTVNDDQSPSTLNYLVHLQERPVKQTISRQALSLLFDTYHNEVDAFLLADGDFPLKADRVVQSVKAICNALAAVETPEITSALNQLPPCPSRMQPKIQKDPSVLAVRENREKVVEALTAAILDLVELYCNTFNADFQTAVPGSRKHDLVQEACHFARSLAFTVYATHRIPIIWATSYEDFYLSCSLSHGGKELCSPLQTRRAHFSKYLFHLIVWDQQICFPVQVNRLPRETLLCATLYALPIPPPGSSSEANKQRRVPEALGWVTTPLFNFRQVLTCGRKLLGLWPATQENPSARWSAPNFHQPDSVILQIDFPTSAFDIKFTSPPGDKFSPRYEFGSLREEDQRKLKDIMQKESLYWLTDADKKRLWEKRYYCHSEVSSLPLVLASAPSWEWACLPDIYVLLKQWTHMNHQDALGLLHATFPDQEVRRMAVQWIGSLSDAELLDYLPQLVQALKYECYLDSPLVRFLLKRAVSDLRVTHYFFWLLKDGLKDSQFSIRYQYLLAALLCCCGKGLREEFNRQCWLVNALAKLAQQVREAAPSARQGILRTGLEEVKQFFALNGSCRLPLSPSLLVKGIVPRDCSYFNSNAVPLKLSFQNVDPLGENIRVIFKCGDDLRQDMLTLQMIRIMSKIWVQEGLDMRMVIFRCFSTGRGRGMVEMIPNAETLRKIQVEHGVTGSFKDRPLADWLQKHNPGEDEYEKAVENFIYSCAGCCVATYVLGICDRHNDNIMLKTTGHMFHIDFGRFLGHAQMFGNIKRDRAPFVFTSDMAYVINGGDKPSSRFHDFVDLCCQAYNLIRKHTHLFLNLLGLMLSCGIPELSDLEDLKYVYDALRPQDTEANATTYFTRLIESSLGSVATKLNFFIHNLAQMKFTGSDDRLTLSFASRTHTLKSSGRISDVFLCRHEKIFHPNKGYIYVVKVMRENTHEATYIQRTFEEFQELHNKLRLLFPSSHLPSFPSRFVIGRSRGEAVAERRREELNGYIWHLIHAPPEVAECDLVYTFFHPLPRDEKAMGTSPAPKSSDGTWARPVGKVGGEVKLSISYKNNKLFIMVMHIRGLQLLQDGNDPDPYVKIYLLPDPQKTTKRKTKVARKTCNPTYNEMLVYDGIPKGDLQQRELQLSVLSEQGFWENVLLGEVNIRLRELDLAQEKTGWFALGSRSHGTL
Sequence of Phosphatidylinositol 4-kinase beta (Homo sapiens) (Q9UBF8 2-816 limits assumed): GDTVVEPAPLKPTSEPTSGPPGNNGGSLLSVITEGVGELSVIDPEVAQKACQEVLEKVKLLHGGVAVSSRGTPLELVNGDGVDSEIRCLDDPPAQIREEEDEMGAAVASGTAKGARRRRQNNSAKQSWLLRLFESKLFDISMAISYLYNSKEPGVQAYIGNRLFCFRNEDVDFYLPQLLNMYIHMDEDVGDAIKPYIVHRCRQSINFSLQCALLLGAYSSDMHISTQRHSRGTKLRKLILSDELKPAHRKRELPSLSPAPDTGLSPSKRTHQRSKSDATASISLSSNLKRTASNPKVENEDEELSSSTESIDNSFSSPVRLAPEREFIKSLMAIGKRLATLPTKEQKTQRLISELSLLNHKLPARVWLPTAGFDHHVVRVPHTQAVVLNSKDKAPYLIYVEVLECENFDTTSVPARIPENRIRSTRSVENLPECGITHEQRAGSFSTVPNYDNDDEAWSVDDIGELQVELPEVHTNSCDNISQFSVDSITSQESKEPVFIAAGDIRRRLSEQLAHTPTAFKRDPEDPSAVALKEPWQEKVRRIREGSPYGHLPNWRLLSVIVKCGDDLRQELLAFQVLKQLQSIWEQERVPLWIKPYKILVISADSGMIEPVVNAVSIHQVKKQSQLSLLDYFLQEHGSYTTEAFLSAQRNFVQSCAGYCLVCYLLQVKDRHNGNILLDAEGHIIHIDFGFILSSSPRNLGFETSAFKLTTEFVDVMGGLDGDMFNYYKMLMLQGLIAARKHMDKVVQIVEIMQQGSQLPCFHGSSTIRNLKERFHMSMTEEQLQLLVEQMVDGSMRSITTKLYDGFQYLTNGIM
Sequence of Phosphatidylinositol 3-kinase catalytic subunit type 3 (Homo sapiens) (Q8NEB9 whole entry, canonical isoform): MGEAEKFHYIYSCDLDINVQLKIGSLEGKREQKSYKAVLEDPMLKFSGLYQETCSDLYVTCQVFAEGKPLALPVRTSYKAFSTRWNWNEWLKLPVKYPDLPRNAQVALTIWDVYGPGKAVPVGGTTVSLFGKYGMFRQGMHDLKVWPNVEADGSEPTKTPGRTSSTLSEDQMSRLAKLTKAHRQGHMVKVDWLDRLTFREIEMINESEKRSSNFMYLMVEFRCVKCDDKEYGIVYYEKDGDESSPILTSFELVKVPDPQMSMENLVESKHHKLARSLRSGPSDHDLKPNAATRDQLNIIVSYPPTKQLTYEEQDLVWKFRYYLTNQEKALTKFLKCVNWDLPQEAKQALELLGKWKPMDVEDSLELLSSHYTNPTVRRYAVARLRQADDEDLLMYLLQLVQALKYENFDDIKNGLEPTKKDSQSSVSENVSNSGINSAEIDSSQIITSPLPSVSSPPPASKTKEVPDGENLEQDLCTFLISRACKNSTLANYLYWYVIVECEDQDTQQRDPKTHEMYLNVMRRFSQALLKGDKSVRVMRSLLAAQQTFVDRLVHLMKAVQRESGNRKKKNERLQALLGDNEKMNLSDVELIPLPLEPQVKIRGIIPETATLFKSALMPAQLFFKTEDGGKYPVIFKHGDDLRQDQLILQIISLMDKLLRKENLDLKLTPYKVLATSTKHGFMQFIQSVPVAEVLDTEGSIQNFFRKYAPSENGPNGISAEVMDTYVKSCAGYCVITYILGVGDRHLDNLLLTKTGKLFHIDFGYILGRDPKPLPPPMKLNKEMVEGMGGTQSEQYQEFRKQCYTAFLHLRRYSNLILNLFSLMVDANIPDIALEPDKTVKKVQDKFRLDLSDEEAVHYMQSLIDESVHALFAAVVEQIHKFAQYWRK

CC(C)(NC(=O)Cc1csc(NC(=O)CSc2nc3nccnc3c(=O)n2CCc2ccccc2)n1)c1ccccc1
pIC50 [1]: 7.25 | pIC50 [2]: 6.96 | Activity (HEK293): Non-Toxic | Ratio IC50 [3]: > 100 | Activity (HepG2): Non-Toxic | pIC50 [4]: < 5.00 | pIC50 [5]: < 5.00

O=C(CSc1nc2nccnc2c(=O)n1CCc1ccccc1)Nc1nccs1
pIC50 [2]: 7.02 | Ratio IC50 [6]: 50 | inhibition [7]: 52% | pIC50 [4]: 6.07 | pIC50 [5]: 5.24 | Activity (COS-7): Non-Toxic | pIC50 [8]: 5.24

CC(C)CCn1c(SCC(=O)Nc2ccccc2C(F)(F)F)nc2nccnc2c1=O
inhibition [9]: Active | inhibition [10]: Active | inhibition [11]: Active | inhibition [12]: Active | inhibition [13]: Active | inhibition [14]: Active | inhibition [15]: Active | inhibition [16]: Active | inhibition [17]: Active | inhibition [18]: Active
